Here are results for 22 molecules from article PMC11154717, “Evaluation of Novel Spiro-pyrrolopyridazine Derivatives as Anticancer Compounds: In Vitro Selective Cytotoxicity, Induction of Apoptosis, EGFR Inhibitory Activity, and Molecular Docking Analysis” (ACS Omega, 2024).

Assay type in all cases: cell-based, human
In test [1] the test system is MCF-7 breast cancer cells. Kind of test: XTT cell viability assay, MCF-7. Particulars: for IC50: XTT, 72 h. The procedure:
(§1) Human breast cancer (MCF-7), human lung cancer (H69AR), and human prostate cancer (PC-3) human nontumorigenic HEK-293 cells were obtained from the Health Protection Agency (UK) and Interlab Cell Line Collection (ICLC, Italy). Cells were maintained in RPMI medium (Sigma) containing 10% heat-inactivated fetal bovine serum, 1% penicillin, and 1% L-glutamine in a 37° humidified CO2 incubator.
(§2) XTT (2,3-bis(2-methoxy-4-nitro-5-sulfophenyl)-2H-tetrazolium-5-carboxanilide) cell viability test was used to determine the cytotoxic activities of SPPs, which were dissolved in dimethyl sulfoxide (DMSO). Cells were seeded in 96-well plates at a density of 10^4/well and treated with increasing concentrations of SPP (1–250 μM) for 24, 48, and 72 h. After the incubation period, 100 μL of XTT was added to all experimental wells, and 96-well plates were incubated at 37 °C for 4 h. After the color change was observed, the absorbance values of the wells were recorded at 570 nm in the microplate reader (Tecan). The IC50 values for all synthesized compounds, representing the concentration needed to inhibit 50% of cancer cell proliferation, were determined using Biosoft CalcuSyn 2.1 software.[13] The following formula was used to calculate selectivity indexes (SIs), which represent the cytotoxic selectivity of SPPs against cancer cells and normal cells (HEK-293): […]

The subject of another test is H69AR lung cancer cells. The experiment in a line: XTT cell viability assay, H69AR. Particulars: for IC50: XTT, 72 h. The method, then: as §1, §2
The subject of test [2] is nontumorigenic HEK-293 cells. The experiment in a line: XTT cell viability assay, HEK-293. The procedure:
as §1, §2

Test [3] relates to PC-3 prostate cancer cells. Kind of test: XTT cell viability assay, PC-3. The following applies: for IC50: XTT, 72 h. The procedure:
as §1, §2

In the case of `Cc1ccc(C2=NC3(CCCCC3)c3c(-c4ccccc4)nnc(-c4ccccc4)c32)cc1` [SPP2], the half-maximal inhibitory concentration (IC50) was found to be 24.6 ± 0.3 µM in test [1] (Homo sapiens, MCF7); 18.7 ± 1.4 µM in the test with H69AR lung cancer cells (Homo sapiens, H69AR); 37.7 ± 0.2 µM in test [2] (Homo sapiens, HEK293, 72 h); 44.2 ± 2.8 µM in test [3] (Homo sapiens).

Take `c1ccc(C2=NC3(CCCCC3)c3c(-c4ccccc4)nnc(-c4ccccc4)c32)cc1` [SPP1]: the IC50 in test [1] (Homo sapiens, MCF7) stood at 21.3 ± 0.4 µM; in the test on H69AR lung cancer cells (Homo sapiens, H69AR), 27.1 ± 0.8 µM; in test [2] (Homo sapiens, HEK293, 72 h), 16.5 ± 1.2 µM; in test [3] (Homo sapiens), 35.4 ± 1.6 µM.

Take `Clc1ccc(C2=NC3(CCCCC3)c3c(-c4ccccc4)nnc(-c4ccccc4)c32)cc1` [SPP6]: the IC50 in test [1] (Homo sapiens, MCF7) was found to be 48.2 ± 1.4 µM; in the test with H69AR lung cancer cells (Homo sapiens, H69AR), 137 ± 1.6 µM; in test [2] (Homo sapiens, HEK293, 72 h) it was 77.8 ± 1.7 µM; in test [3] (Homo sapiens), 35.6 ± 0.4 µM.

Regarding `Cc1cccc(C2=NC3(CCCCC3)c3c(-c4ccccc4)nnc(-c4ccccc4)c32)c1` [SPP3], the half-inhibitory concentration (IC50) worked out at 10.4 ± 1.5 µM in test [1] (Homo sapiens, MCF7); 9.8 ± 0.7 µM with H69AR lung cancer cells (Homo sapiens, H69AR); 7.5 ± 1 µM in test [2] (Homo sapiens, HEK293, 72 h); 8.3 ± 0.6 µM in test [3] (Homo sapiens). Moreover, in test [1] (versus HEK-293), the “selectivity index (SI) MCF-7” value is 0.72. For the same molecule, in the test on H69AR lung cancer cells (versus HEK-293), the “selectivity index (SI) H69AR” value was found to be 0.76. Further, the “selectivity index (SI) PC-3” value in test [3] (versus HEK-293) is 0.90.

For the molecule `Cc1cccc(C2=NC3(CCCCC3)c3c(-c4ccc(F)cc4)nnc(-c4ccccc4)c32)c1` [SPP16], the IC50 in test [1] (Homo sapiens, MCF7) was found to be 58.3 ± 0.4 µM; with H69AR lung cancer cells (Homo sapiens, H69AR), 63.9 ± 2.8 µM; in test [2] (Homo sapiens, HEK293, 72 h), 64.4 ± 2.3 µM; in test [3] (Homo sapiens), 76.3 ± 0.2 µM.

With `Clc1ccc(C2=NC3(CCCCC3)c3c(-c4cccc(Br)c4)nnc(-c4ccccc4)c32)cc1` [SPP20], the half-maximal inhibitory concentration (IC50) came out at 47.6 ± 2 µM in test [1] (Homo sapiens, MCF7); 140 ± 2.4 µM with H69AR lung cancer cells (Homo sapiens, H69AR); 18.3 ± 2.1 µM in test [2] (Homo sapiens, HEK293, 72 h); 24.2 ± 0.8 µM in test [3] (Homo sapiens).

`O=[N+]([O-])c1ccc(C2=NC3(CCCCC3)c3c(-c4ccccc4)nnc(-c4ccccc4)c32)cc1` [SPP9]: the IC50 in test [1] (Homo sapiens, MCF7) was determined as 57.4 ± 2.8 µM; with H69AR lung cancer cells (Homo sapiens, H69AR), 62.1 ± 1.2 µM; in test [2] (Homo sapiens, HEK293, 72 h) it was 47.5 ± 2.6 µM; in test [3] (Homo sapiens), 89.2 ± 2.5 µM.

As for `C#Cc1cccc(Nc2ncnc3cc(OCCOC)c(OCCOC)cc23)c1` [erlotinib, reference compound], the IC50 in test [1] (Homo sapiens, MCF7) came to 19.4 ± 2 µM; with H69AR lung cancer cells (Homo sapiens, H69AR), 21.5 ± 1.8 µM; in test [2] (Homo sapiens, HEK293, 72 h), 14.7 ± 2.8 µM; in test [3] (Homo sapiens) it was 18.9 ± 3.2 µM.

In the case of `Cc1ccc(-c2nnc(-c3ccccc3)c3c2C2(CCCCC2)N=C3c2ccc(C(F)(F)F)cc2)cc1` [SPP21], the IC50 came out at 54.7 ± 2.9 µM in test [1] (Homo sapiens, MCF7); 21.8 ± 0.6 µM with H69AR lung cancer cells (Homo sapiens, H69AR); 47.1 ± 0.4 µM in test [2] (Homo sapiens, HEK293, 72 h); 42.7 ± 1.6 µM in test [3] (Homo sapiens).

Take `Clc1ccc(C2=NC3(CCCCC3)c3c(-c4ccccc4)nnc(-c4ccccc4)c32)cc1Cl` [SPP7]: the IC50 was determined as 69.2 ± 1.2 µM in test [1] (Homo sapiens, MCF7); 72.2 ± 3.4 µM in the test with H69AR lung cancer cells (Homo sapiens, H69AR); 55.8 ± 0.6 µM in test [2] (Homo sapiens, HEK293, 72 h); 21.1 ± 2.1 µM in test [3] (Homo sapiens).

For the molecule `Cc1ccc(-c2nnc(-c3ccccc3)c3c2C2(CCCCC2)N=C3c2ccccc2)cc1` [SPP11], the concentration for half-maximal inhibition (IC50) in test [1] (Homo sapiens, MCF7) came to 95.2 ± 2.4 µM; in the test on H69AR lung cancer cells (Homo sapiens, H69AR), 75.7 ± 3.5 µM; in test [2] (Homo sapiens, HEK293, 72 h), 87.7 ± 1.6 µM; in test [3] (Homo sapiens), 80.5 ± 2.3 µM.

`CC(C)(C)c1ccc(C2=NC3(CCCCC3)c3c(-c4ccccc4)nnc(-c4ccccc4)c32)cc1` [SPP4]: the half-maximal inhibitory concentration (IC50) came out at 67.1 ± 0.2 µM in test [1] (Homo sapiens, MCF7); 92 ± 3.2 µM with H69AR lung cancer cells (Homo sapiens, H69AR); 55.3 ± 3.6 µM in test [2] (Homo sapiens, HEK293, 72 h); 85.5 ± 1.2 µM in test [3] (Homo sapiens).

Regarding `Cc1ccc(-c2nnc(-c3ccccc3)c3c2C2(CCCCC2)N=C3c2cccc(C)c2)cc1` [SPP15], the half-inhibitory concentration (IC50) was 29.7 ± 2.2 µM in test [1] (Homo sapiens, MCF7); 35.2 ± 3.2 µM in the test on H69AR lung cancer cells (Homo sapiens, H69AR); 24.1 ± 1.8 µM in test [2] (Homo sapiens, HEK293, 72 h); 2.8 ± 0.4 µM in test [3] (Homo sapiens).

Regarding `COc1ccccc1C1=NC2(CCCCC2)c2c(-c3ccccc3)nnc(-c3ccccc3)c21` [SPP5], the 50% inhibitory concentration (IC50) in test [1] (Homo sapiens, MCF7) turned out to be 40.9 ± 1.8 µM; in the test with H69AR lung cancer cells (Homo sapiens, H69AR), 62.7 ± 0.7 µM; in test [2] (Homo sapiens, HEK293, 72 h), 45.4 ± 2 µM; in test [3] (Homo sapiens), 70.6 ± 2.4 µM.

As for `CC(C)(C)c1ccc(C2=NC3(CCCCC3)c3c(-c4cccc(Br)c4)nnc(-c4ccccc4)c32)cc1` [SPP19], the 50% inhibitory concentration (IC50) in test [1] (Homo sapiens, MCF7) stood at 38.4 ± 0.7 µM; in the test on H69AR lung cancer cells (Homo sapiens, H69AR), 34.9 ± 2.1 µM; in test [2] (Homo sapiens, HEK293, 72 h) it was 33.4 ± 1.6 µM; in test [3] (Homo sapiens) it was 61 ± 2.2 µM.

On to `FC(F)(F)c1ccc(C2=NC3(CCCCC3)c3c(-c4ccccc4)nnc(-c4ccccc4)c32)cc1` [SPP8], for which the IC50 is 62.2 ± 3.5 µM in test [1] (Homo sapiens, MCF7); 71.9 ± 1.8 µM in the test with H69AR lung cancer cells (Homo sapiens, H69AR); 38.2 ± 1.3 µM in test [2] (Homo sapiens, HEK293, 72 h); 35.5 ± 0.7 µM in test [3] (Homo sapiens).

`CC(C)(C)c1ccc(C2=NC3(CCCCC3)c3c(-c4ccc(F)cc4)nnc(-c4ccccc4)c32)cc1` [SPP18]: the IC50 in test [1] (Homo sapiens, MCF7) was found to be 65.8 ± 1.4 µM; with H69AR lung cancer cells (Homo sapiens, H69AR), 77.4 ± 1.7 µM; in test [2] (Homo sapiens, HEK293, 72 h) it was 58.5 ± 1.3 µM; in test [3] (Homo sapiens), 59.6 ± 1.4 µM.

Regarding `N.N.[Cl][Pt][Cl]` [cisplatin, reference compound], the concentration for half-maximal inhibition (IC50) in test [1] amounted to 16.8 ± 2.4 µM; in the test with H69AR lung cancer cells, 18.2 ± 0.8 µM; in test [2] (72 h), 16.4 ± 0.4 µM; in test [3], 14.9 ± 4.1 µM.

Regarding `Fc1ccc(-c2nnc(-c3ccccc3)c3c2C2(CCCCC2)N=C3c2ccccc2)cc1` [SPP12], the half-inhibitory concentration (IC50) in test [1] (Homo sapiens, MCF7) amounted to 12.6 ± 2.6 µM; in the test with H69AR lung cancer cells (Homo sapiens, H69AR), 19.2 ± 0.4 µM; in test [2] (Homo sapiens, HEK293, 72 h), 40.8 ± 2.2 µM; in test [3] (Homo sapiens), 24.2 ± 0.8 µM.

On to `Cc1ccc(-c2nnc(-c3ccccc3)c3c2C2(CCCCC2)N=C3c2ccsc2)cc1` [SPP14], for which the half-inhibitory concentration (IC50) came to 41.5 ± 0.8 µM in test [1] (Homo sapiens, MCF7); 55.3 ± 1.6 µM in the test on H69AR lung cancer cells (Homo sapiens, H69AR); 12.4 ± 0.2 µM in test [2] (Homo sapiens, HEK293, 72 h); 61.4 ± 0.5 µM in test [3] (Homo sapiens).

Turning to `Brc1cccc(-c2nnc(-c3ccccc3)c3c2C2(CCCCC2)N=C3c2ccccc2)c1` [SPP13], the IC50 in test [1] (Homo sapiens, MCF7) was determined as 66.4 ± 1.2 µM; with H69AR lung cancer cells (Homo sapiens, H69AR), 70.8 ± 1.3 µM; in test [2] (Homo sapiens, HEK293, 72 h) it was 52.7 ± 1.4 µM; in test [3] (Homo sapiens) it was 89.7 ± 2.4 µM.

On to `Cc1ccc(-c2nnc(-c3ccccc3)c3c2C2(CCCCC2)N=C3c2ccc(C(C)(C)C)cc2)cc1` [SPP17], for which the half-inhibitory concentration (IC50) in test [1] (Homo sapiens, MCF7) was 61.9 ± 2.6 µM; in the test on H69AR lung cancer cells (Homo sapiens, H69AR), 63.3 ± 1.4 µM; in test [2] (Homo sapiens, HEK293, 72 h), 74.6 ± 0.7 µM; in test [3] (Homo sapiens) it was 88.2 ± 3.5 µM.
